Data: publication PMC11728001, “Design, Synthesis, and Biological Evaluation of Novel Urea-Containing Carnosic Acid Derivatives with Anticancer Activity” (International Journal of Molecular Sciences, 2024)
Read-outs that look alike come from different tables or passages of the source.

What was measured:
[1] = system: SW480 cells; test: MTT cell viability assay, SW480; type: cell-based; settings: Homo sapiens, 72 h incubation, mean ± SD
Experimental: (§1) The effect of the compounds on cell viability was evaluated using the MTT assay. HCT116 (3000 cells/well), SW620 (8000 cells/well), SW480 (6000 cells/well), Caco-2 (4000 cells/well), A375 (1500 cells/well), MiaPaca-2 (2000 cells/well), and BJ (10,000 cells/well) cells were seeded in 96-well plates. After 24 h, the growth medium was replaced with a fresh medium containing the desired concentration of the compound or DMSO (control). After 72 h of incubation, the supernatant was removed and 100 µL of a mixture (1:1) of filtered MTT solution (1 mg/mL in PBS) with FBS-free medium was added to each well. After 1 h of incubation at 37 °C, the mixture was removed and 100 µL of DMSO was added to each well to dissolve the formed formazan crystals. Absorbance was immediately measured at 570 nm using a Benchmark Plus Microplate Reader (Bio-Rad Laboratories, Hercules, CA, USA). IC50 values were calculated using GraphPad Prism 9 software (GraphPad Software, San Diego, CA, USA) and expressed as the mean ± standard deviation (SD) of at least three independent experiments.

[2] = system: SW620 cells; test: MTT cell viability assay, SW620; type: cell-based; settings: Homo sapiens, SW-620, 72 h incubation, mean ± SD
Experimental: as §1

[3] = system: Caco-2 cells; test: MTT cell viability assay, Caco-2; type: cell-based; settings: Homo sapiens, 72 h incubation, mean ± SD
Experimental: as §1

[4] = system: HCT116 colorectal cancer cell line; test: MTT cell viability assay, HCT116; type: cell-based; settings: Homo sapiens, HCT-116, 72 h incubation, mean ± SD
Experimental: The antiproliferative activity of CA 1 and its derivatives was evaluated against a colorectal cancer (CRC) cell line (HCT116) using the MTT assay. The anticancer drug cisplatin was used as the reference drug.
as §1

[5] = system: MiaPaca-2 pancreatic cancer cells; test: MTT cell viability assay, MiaPaca-2; type: cell-based; settings: Homo sapiens, MIA PaCa-2, 72 h incubation, mean ± SD
Experimental: as §1

[6] = system: A375 melanoma cells; test: MTT cell viability assay, A375; type: cell-based; settings: Homo sapiens, A-375, 72 h incubation, mean ± SD
Experimental: as §1

[7] = system: A375 melanoma cells; parameters: method as in PMID 23229057; settings: from literature, same methodology; cited from earlier work
[8] = system: SW620 cells; parameters: method as in PMID 31909511; settings: obtained previously by the research group, same methodology; cited from earlier work
[9] = system: HCT116 colorectal cancer cell line; parameters: method as in PMID 29922789; settings: MTT, 72 h; obtained previously by the research group, same methodology; cited from earlier work
[10] = system: BJ non-tumoral fibroblast cell line; parameters: method as in PMID 41058673; settings: obtained previously by the research group, same methodology; cited from earlier work
[11] = system: MiaPaca-2 pancreatic cancer cells; parameters: method as in PMID 18007390; settings: from literature, same methodology; cited from earlier work

**Q.** For `CC(C)c1cc2c(c(O)c1O)[C@@]1(C(=O)O)CCCC(C)(C)[C@@H]1CC2` [CA 1, Carnosic acid], which IC50 [1] is on record?
**A.** The IC50 was 21.8 ± 0.7 µM.

**Q.** What about the IC50 [2] of the same compound?
**A.** The IC50 was 18 ± 2 µM.

**Q.** What about the IC50 [3] of the same compound?
**A.** Its IC50 is 34 ± 2 µM.

**Q.** What about the IC50 [4] of the same compound?
**A.** Its IC50 is 42 ± 4 µM.

**Q.** And the IC50 [5]?
**A.** The IC50 was 21 ± 2 µM.

**Q.** What about the IC50 [6] of the same compound?
**A.** The IC50 was 27.6 ± 0.5 µM.

**Q.** For `N.N.[Cl][Pt][Cl]` [Cisplatin, cisplatin], which IC50 [7] is on record?
**A.** The IC50 was 3 ± 1 µM.

**Q.** And the IC50 [8]?
**A.** The IC50 was 1.4 ± 0.5 µM.

**Q.** And the IC50 [9]?
**A.** The IC50 was 21 ± 1 µM.

**Q.** And the IC50 [10]?
**A.** Its IC50 is 10 ± 2 µM.

**Q.** What about the IC50 [11] of the same compound?
**A.** Its IC50 is 5 ± 1 µM.

**Q.** With `CC(=O)Oc1c(C(C)C)cc2c(c1OC(C)=O)[C@@]1(C(=O)O)CCCC(C)(C)[C@@H]1CC2` [Compound 2, (4aR,10aS)-5,6-Diacetoxy-7-isopropyl-1,1-dimethyl-1,3,4,9,10,10a-hexahydrophenanthrene-4a(2H)-carboxylic acid] as the compound, how does the IC50 [4] read?
**A.** The IC50 was 44 ± 4 µM.

**Q.** For `CC(=O)Oc1c(C(C)C)cc2c(c1OC(C)=O)[C@@]1(N=C=O)CCCC(C)(C)[C@@H]1CC2` [Compound 5, (4bR, 8aS)-4b-Isocyanato-2-isopropyl-8,8-dimethyl-4b,5,6,7,8,8a,9,10-octahydrophenanthrene-3,4-diyl diacetate], which IC50 [4] is on record?
**A.** The IC50 was 28 ± 3 µM.

**Q.** With `CNC(=O)N[C@]12CCCC(C)(C)[C@@H]1CCc1cc(C(C)C)c(OC(C)=O)c(OC(C)=O)c12` [Compound 6, (4bR,8aS)-2-isopropyl-8,8-dimethyl-4b-(3-methylureido)-4b,5,6,7,8,8a,9,10-octahydrophenanthrene-3,4-diyl diacetate] as the compound, how does the IC50 [4] read?
**A.** Its IC50 is 55 ± 5 µM.

**Q.** For `CCNC(=O)N[C@]12CCCC(C)(C)[C@@H]1CCc1cc(C(C)C)c(OC(C)=O)c(OC(C)=O)c12` [Compound 7, (4bR,8aS)-4b-(3-Ethylureido)-2-isopropyl-8,8-dimethyl-4b,5,6,7,8,8a,9,10-octahydrophenanthrene-3,4-diyl diacetate], which IC50 [4] is on record?
**A.** The IC50 was 44 ± 4 µM.

**Q.** For `CCCNC(=O)N[C@]12CCCC(C)(C)[C@@H]1CCc1cc(C(C)C)c(OC(C)=O)c(OC(C)=O)c12` [Compound 8, (4bR,8aS)-2-isopropyl-8,8-dimethyl-4b-(3-propylureido)-4b,5,6,7,8,8a,9,10-octahydrophenanthrene-3,4-diyl diacetate], which IC50 [4] is on record?
**A.** Its IC50 is 31 ± 1 µM.

**Q.** Which IC50 [4] does the source give for `CCCCN(C)C(=O)N[C@]12CCCC(C)(C)[C@@H]1CCc1cc(C(C)C)c(OC(C)=O)c(OC(C)=O)c12` [Compound 9, (4bR,8aS)-4b-(3-butyl-3-methylureido)-2-isopropyl-8,8-dimethyl-4b,5,6,7,8,8a,9,10-octahydrophenanthrene-3,4-diyl diacetate] here?
**A.** The IC50 was 22 ± 1 µM.

**Q.** Which IC50 [4] does the source give for `CC(=O)Oc1c(C(C)C)cc2c(c1OC(C)=O)[C@@]1(NC(=O)NCC(C)C)CCCC(C)(C)[C@@H]1CC2` [Compound 10, (4bR,8aS)-4b-(3-isobutylureido)-2-isopropyl-8,8-dimethyl-4b,5,6,7,8,8a,9,10-octahydrophenanthrene-3,4-diyl diacetate] here?
**A.** Its IC50 is 22 ± 2 µM.

**Q.** With `CC(=O)Oc1c(C(C)C)cc2c(c1OC(C)=O)[C@@]1(NC(=O)NCC(C)(C)CN(C)C)CCCC(C)(C)[C@@H]1CC2` [Compound 11, (4bR,8aS)-4b-(3-(3-(dimethylamino)-2,2-dimethylpropyl)ureido)-2-isopropyl-8,8-dimethyl-4b,5,6,7,8,8a,9,10-octahydrophenanthrene-3,4-diyl diacetate] as the compound, how does the IC50 [4] read?
**A.** The IC50 was 30 ± 1 µM.

**Q.** With `CONC(=O)N[C@]12CCCC(C)(C)[C@@H]1CCc1cc(C(C)C)c(OC(C)=O)c(OC(C)=O)c12` [Compound 12, (4bR,8aS)-2-isopropyl-4b-(3-methoxyureido)-8,8-dimethyl-4b,5,6,7,8,8a,9,10-octahydrophenanthrene-3,4-diyl diacetate] as the compound, how does the IC50 [4] read?
**A.** The IC50 was 41 ± 3 µM.

**Q.** With `CC(=O)Oc1c(C(C)C)cc2c(c1OC(C)=O)[C@@]1(NC(=O)NCCc3ccccc3)CCCC(C)(C)[C@@H]1CC2` [Compound 13, (4bR,8aS)-2-isopropyl-8,8-dimethyl-4b-(3-phenethylureido)-4b,5,6,7,8,8a,9,10-octahydrophenanthrene-3,4-diyl diacetate] as the compound, how does the IC50 [1] read?
**A.** Its IC50 is 8.6 ± 0.3 µM.

**Q.** And the IC50 [2]?
**A.** Its IC50 is 9 ± 1 µM.

**Q.** What about the IC50 [3] of the same compound?
**A.** Its IC50 is 10.9 ± 0.6 µM.

**Q.** And the IC50 [4]?
**A.** Its IC50 is 14 ± 2 µM.

**Q.** For `CC(=O)Oc1c(C(C)C)cc2c(c1OC(C)=O)[C@@]1(NC(=O)NCc3ccncc3)CCCC(C)(C)[C@@H]1CC2` [Compound 15, (4bR,8aS)-2-isopropyl-8,8-dimethyl-4b-(3-(pyridin-4-ylmethyl)ureido)-4b,5,6,7,8,8a,9,10-octahydrophenanthrene-3,4-diyl diacetate], which IC50 [4] is on record?
**A.** The IC50 was 33 ± 2 µM.

**Q.** For `CC(=O)Oc1c(C(C)C)cc2c(c1OC(C)=O)[C@@]1(NC(=O)NCCCN(C)c3ccccc3)CCCC(C)(C)[C@@H]1CC2` [Compound 16, (4bR,8aS)-2-isopropyl-8,8-dimethyl-4b-(3-(3-(methyl(phenyl)amino)propyl)ureido)-4b,5,6,7,8,8a,9,10-octahydrophenanthrene-3,4-diyl diacetate], which IC50 [1] is on record?
**A.** Its IC50 is 7.6 ± 0.6 µM.

**Q.** And the IC50 [2]?
**A.** The IC50 was 6.4 ± 0.4 µM.

**Q.** And the IC50 [3]?
**A.** The IC50 was 9.6 ± 0.6 µM.

**Q.** What about the IC50 [4] of the same compound?
**A.** Its IC50 is 12 ± 0.5 µM.

**Q.** And the IC50 [5]?
**A.** The IC50 was 9.3 ± 0.4 µM.

**Q.** And the IC50 [6]?
**A.** The IC50 was 7.6 ± 0.6 µM.

**Q.** For `CC(=O)Oc1c(C(C)C)cc2c(c1OC(C)=O)[C@@]1(NC(=O)NCc3ccoc3)CCCC(C)(C)[C@@H]1CC2` [Compound 17, (4bR,8aS)-4b-(3-(furan-3-ylmethyl)ureido)-2-isopropyl-8,8-dimethyl-4b,5,6,7,8,8a,9,10-octahydrophenanthrene-3,4-diyl diacetate], which IC50 [4] is on record?
**A.** Its IC50 is 21 ± 2 µM.

**Q.** For `CC(=O)Oc1c(C(C)C)cc2c(c1OC(C)=O)[C@@]1(NC(=O)NCC3CCOCC3)CCCC(C)(C)[C@@H]1CC2` [Compound 18, (4bR,8aS)-2-isopropyl-8,8-dimethyl-4b-(3-((tetrahydro-2H-pyran-4-yl)methyl)ureido)-4b,5,6,7,8,8a,9,10-octahydrophenanthrene-3,4-diyl diacetate], which IC50 [4] is on record?
**A.** The IC50 was 51 ± 5 µM.

**Q.** With `CC(=O)Oc1c(C(C)C)cc2c(c1OC(C)=O)[C@@]1(NC(=O)NC3COC3)CCCC(C)(C)[C@@H]1CC2` [Compound 19, (4bR,8aS)-2-isopropyl-8,8-dimethyl-4b-(3-(oxetan-3-yl)ureido)-4b,5,6,7,8,8a,9,10-octahydrophenanthrene-3,4-diyl diacetate] as the compound, how does the IC50 [4] read?
**A.** Its IC50 is over 60 µM.

**Q.** With `CC(=O)Oc1c(C(C)C)cc2c(c1OC(C)=O)[C@@]1(NC(=O)NCC3(C)COC3)CCCC(C)(C)[C@@H]1CC2` [Compound 20, (4bR,8aS)-2-isopropyl-8,8-dimethyl-4b-(3-((3-methyloxetan-3-yl)methyl)ureido)-4b,5,6,7,8,8a,9,10-octahydrophenanthrene-3,4-diyl diacetate] as the compound, how does the IC50 [4] read?
**A.** Its IC50 is 46 ± 2 µM.
